In general, IC50 refers to the point on the concentration scale where inhibition reaches its midpoint.

Among the data in US9758537B2 (Achillion Pharmaceuticals, Inc., priority 2014, dated 2017) are IC50 values, retold here.

The target of this experiment is Human factor D (Homo sapiens (Human), UniProt P00746). As to the kind of experiment: Human Factor D Assay. The class given is biochemical. The conditions noted are these: human factor D 80 nM, substrate Z-L-Lys-SBzl, DTNB, OD405. The gist of the method: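 Serum-purified human factor D (80 nM final) preincubated with compound 5 min at room temperature in 50 mM Tris, 1M NaCl, pH 7.5. Z-L-Lys-SBzl and DTNB added at 10 μM final each; OD405 followed kinetically over 30 min. IC50 by non-linear regression of percent inhibition.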
Chain of Human factor D (P00746 26-253): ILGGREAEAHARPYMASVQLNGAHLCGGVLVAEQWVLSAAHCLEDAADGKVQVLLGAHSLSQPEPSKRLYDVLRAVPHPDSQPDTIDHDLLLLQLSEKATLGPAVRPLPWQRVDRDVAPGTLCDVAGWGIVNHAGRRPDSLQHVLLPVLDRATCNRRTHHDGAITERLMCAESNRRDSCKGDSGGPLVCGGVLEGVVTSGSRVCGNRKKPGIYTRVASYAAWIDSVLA
For `NC(=O)c1nn(CC(=O)N2C[C@H](F)C[C@H]2C(=O)Nc2cccc(-c3cc(F)cc(F)c3Cl)c2F)c2ccccc12` [Compound 94, 1-(2-((2S,4R)-2-(2′-chloro-2,3′,5′-trifluorobiphenyl-3-ylcarbamoyl)-4-fluoropyrrolidin-1-yl)-2-oxoethyl)-1H-indazole-3-carboxamide], the IC50 was less than 1000 nM.
For `CC(=O)c1cn(CC(=O)N2C[C@H](F)C[C@H]2C(=O)Nc2cccc(-c3cc(F)cc(F)c3Cl)c2F)c2ccccc12` [Compound 95, (2S,4R)-1-(2-(3-acetyl-1H-indol-1-yl)acetyl)-N-(2′-chloro-2,3′,5′-trifluorobiphenyl-3-yl)-4-fluoropyrrolidine-2-carboxamide] the value was less than 1000 nM; for `CC(=O)c1cn(CC(=O)N2C[C@H](F)C[C@H]2C(=O)Nc2cccc(-c3ccccc3Cl)c2F)c2cccc(C#N)c12` [Compound 97, (2S,4R)-1-(2-(3-acetyl-4-cyano-1H-indol-1-yl)acetyl)-N-(2′-chloro-2-fluorobiphenyl-3-yl)-4-fluoropyrrolidine-2-carboxamide], less than 1000 nM; for `NC(=O)c1cn(CC(=O)N2C[C@H](F)C[C@H]2C(=O)Nc2cccc(-c3ccccc3Cl)c2F)c2sccc12` [Compound 98, 6-(2-((2S,4R)-2-(2′-chloro-2-fluorobiphenyl-3-ylcarbamoyl)-4-fluoropyrrolidin-1-yl)-2-oxoethyl)-6H-thieno[2,3-b]pyrrole-4-carboxamide], less than 1000 nM.
For `NC(=O)c1nn(CC(=O)N2C[C@H](F)C[C@H]2C(=O)Nc2cccc(-c3ccccc3Cl)c2F)c2ccsc12` [Compound 99, 1-(2-((2S,4R)-2-(2′-chloro-2-fluorobiphenyl-3-ylcarbamoyl)-4-fluoropyrrolidin-1-yl)-2-oxoethyl)-1H-thieno[3,2-c]pyrazole-3-carboxamide] the value was less than 1000 nM; for `NC(=O)c1nn(CC(=O)N2C[C@H](F)C[C@H]2C(=O)Nc2cccc(-c3c(F)cc(F)cc3Cl)n2)c2cnccc12` [Compound 100, 1-(2-((2S,4R)-2-(6-(2-chloro-4,6-difluorophenyl)pyridin-2-ylcarbamoyl)-4-fluoropyrrolidin-1-yl)-2-oxoethyl)-1H-pyrazolo[3,4-c]pyridine-3-carboxamide], less than 1000 nM.
For `NC(=O)c1nn(CC(=O)N2C[C@H](F)C[C@H]2C(=O)Nc2cccc(-c3c(F)cc(F)cc3Cl)c2)c2cnccc12` [Compound 101, 1-(2-((2S,4R)-2-(2′-chloro-4′,6′-difluorobiphenyl-3-ylcarbamoyl)-4-fluoropyrrolidin-1-yl)-2-oxoethyl)-1H-pyrazolo[3,4-c]pyridine-3-carboxamide] the value was less than 1000 nM; for `NC(=O)c1nn(CC(=O)N2C[C@H](F)C[C@H]2C(=O)Nc2cccc(-c3ccccc3Cl)c2F)c2c1CCCC2` [Compound 104, 1-(2-((2S,4R)-2-(2′-chloro-2-fluorobiphenyl-3-ylcarbamoyl)-4-fluoropyrrolidin-1-yl)-2-oxoethyl)-4,5,6,7-tetrahydro-1H-indazole-3-carboxamide], less than 1000 nM.
`NC(=O)c1nn(CC(=O)N2C[C@H](F)C[C@H]2C(=O)Nc2cccc(Br)n2)c2ccsc12` [Compound 106, 1-(2-((2S,4R)-2-(6-bromopyridin-2-ylcarbamoyl)-4-fluoropyrrolidin-1-yl)-2-oxoethyl)-1H-thieno[3,2-c]pyrazole-3-carboxamide] had an IC50 of less than 1000 nM.
The result for `NC(=O)c1nn(CC(=O)N2[C@@H]3C[C@@H]3C[C@H]2C(=O)NCc2cccc(Cl)c2F)c2ccsc12` [Compound 107, 1-(2-((1R,3S,5R)-3-(3-chloro-2-fluorobenzylcarbamoyl)-2-azabicyclo[3.1.0]hexan-2-yl)-2-oxoethyl)-1H-thieno[3,2-c]pyrazole-3-carboxamide] reads less than 1000 nM.
The result for `COc1ncc(-c2cn(CC(=O)N3C[C@H](F)C[C@H]3C(=O)Nc3cccc(-c4ccccc4Cl)c3F)nc2C(N)=O)cn1` [Compound 110, 1-(2-((2S,4R)-2-(2′-chloro-2-fluorobiphenyl-3-ylcarbamoyl)-4-fluoropyrrolidin-1-yl)-2-oxoethyl)-4-(2-methoxypyrimidin-5-yl)-1H-pyrazole-3-carboxamide] reads more than 10000 nM; that for `N#Cc1cccc2c(C(N)=O)nn(CC(=O)N3C[C@H](F)C[C@H]3C(=O)Nc3cccc(-c4ccccc4Cl)c3F)c12` [Compound 111, 1-(2-((2S,4R)-2-(2′-chloro-2-fluorobiphenyl-3-ylcarbamoyl)-4-fluoropyrrolidin-1-yl)-2-oxoethyl)-7-cyano-1H-indazole-3-carboxamide], less than 1000 nM.
The result for `CC(=O)c1cn(CC(=O)N2C[C@H](F)C[C@H]2C(=O)Nc2cccc(-c3ccccc3Cl)c2F)c2c(-c3ccc(Cl)nc3)cccc12` [Compound 112, (2S,4R)-1-(2-(3-acetyl-7-(6-chloropyridin-3-yl)-1H-indol-1-yl)acetyl)-N-(2′-chloro-2-fluorobiphenyl-3-yl)-4-fluoropyrrolidine-2-carboxamide] reads less than 1000 nM; that for `Cc1cc2c(s1)c(C(N)=O)nn2CC(=O)N1C[C@H](F)C[C@H]1C(=O)Nc1cccc(-c2ccccc2Cl)c1F` [Compound 113, 1-(2-((2S,4R)-2-(2′-chloro-2-fluorobiphenyl-3-ylcarbamoyl)-4-fluoropyrrolidin-1-yl)-2-oxoethyl)-5-methyl-1H-thieno[3,2-c]pyrazole-3-carboxamide], less than 1000 nM; that for `CC(=O)c1cn(CC(=O)N2C[C@H](F)C[C@H]2C(=O)Nc2cccc(-c3ccccc3Cl)c2F)c2c(-c3cn[nH]c3)cccc12` [Compound 114, (2S,4R)-1-(2-(3-acetyl-7-(1H-pyrazol-4-yl)-1H-indol-1-yl)acetyl)-N-(2′-chloro-2-fluorobiphenyl-3-yl)-4-fluoropyrrolidine-2-carboxamide], less than 1000 nM.
`CC(=O)c1cn(CC(=O)N2C[C@H](F)C[C@H]2C(=O)Nc2cccc(-c3ccccc3Cl)c2F)c2c(C3CC3)cccc12` [Compound 115, (2S,4R)-1-(2-(3-acetyl-7-cyclopropyl-1H-indol-1-yl)acetyl)-N-(2′-chloro-2-fluorobiphenyl-3-yl)-4-fluoropyrrolidine-2-carboxamide] showed an IC50 of less than 1000 nM.
On to `CC(=O)c1ccc(Cl)c(-c2cccc(NC(=O)[C@@H]3C[C@@H](F)CN3C(=O)Cn3nc(C(N)=O)c4ccccc43)c2F)c1` [Compound 117, 1-(2-((2S,4R)-2-(5′-acetyl-2′-chloro-2-fluorobiphenyl-3-ylcarbamoyl)-4-fluoropyrrolidin-1-yl)-2-oxoethyl)-1H-indazole-3-carboxamide], for which the IC50 is less than 1000 nM.
For `Cc1cc2c(s1)c(C(N)=O)nn2CC(=O)N1C[C@H](F)C[C@H]1C(=O)Nc1cccc(Br)n1` [Compound 118, 1-(2-((2S,4R)-2-(6-bromopyridin-2-ylcarbamoyl)-4-fluoropyrrolidin-1-yl)-2-oxoethyl)-5-methyl-1H-thieno[3,2-c]pyrazole-3-carboxamide], the IC50 was less than 1000 nM.
For `CC(=O)c1cn(CC(=O)N2C[C@H](F)C[C@H]2C(=O)Nc2cccc(Br)n2)c2ccc(C3(NC(=O)c4ncccn4)CC3)cc12` [Compound 119, N-(1-(3-acetyl-1-(2-((2S,4R)-2-(6-bromopyridin-2-ylcarbamoyl)-4-fluoropyrrolidin-1-yl)-2-oxoethyl)-1H-indol-5-yl)cyclopropyl)pyrimidine-2-carboxamide] the value was less than 1000 nM; for `NC(=O)c1nn(CC(=O)N2C[C@H](F)C[C@H]2C(=O)Nc2cccc(-c3cc(OC(F)(F)F)ccc3Cl)c2F)c2ccccc12` [Compound 120, 1-(2-((2S,4R)-2-(2′-chloro-2-fluoro-5′-(trifluoromethoxy)biphenyl-3-ylcarbamoyl)-4-fluoropyrrolidin-1-yl)-2-oxoethyl)-1H-indazole-3-carboxamide], less than 1000 nM; for `NC(=O)c1cn(CC(=O)N2C[C@H](F)C[C@H]2c2nc3cc(-c4ccccc4Cl)ccc3[nH]2)c2ccccc12` [Compound 121, 1-(2-((2S,4R)-2-(5-(2-chlorophenyl)-1H-benzo[d]imidazol-2-yl)-4-fluoropyrrolidin-1-yl)-2-oxoethyl)-1H-indole-3-carboxamide], more than 10000 nM.
For `NC(=O)c1nn(CC(=O)N2C[C@H](F)C[C@H]2C(=O)Nc2cccc(-c3ccc4[nH]cnc4c3Cl)c2F)c2ccccc12` [Compound 122, 1-(2-((2S,4R)-2-(3-(4-chloro-1H-benzo[d]imidazol-5-yl)-2-fluorophenylcarbamoyl)-4-fluoropyrrolidin-1-yl)-2-oxoethyl)-1H-indazole-3-carboxamide] the value was less than 1000 nM; for `CC(=O)c1cn(CC(=O)N2C[C@H](F)C[C@H]2C(=O)Nc2cccc(Br)n2)c2ccc(C3(NC(=O)OC(C)(C)C)CC3)cc12` [Compound 123, tert-butyl 1-(3-acetyl-1-(2-((2S,4R)-2-(6-bromopyridin-2-ylcarbamoyl)-4-fluoropyrrolidin-1-yl)-2-oxoethyl)-1H-indol-5-yl)cyclopropylcarbamate], less than 1000 nM; for `CC(=O)c1cn(CC(=O)N2C[C@H](F)C[C@H]2C(=O)Nc2cccc(-c3ccccc3Cl)c2F)c2c(C#Cc3ncc(F)cn3)cccc12` [Compound 124, (2S,4R)-1-(2-(3-acetyl-7-((5-fluoropyrimidin-2-yl)ethynyl)-1H-indol-1-yl)acetyl)-N-(2′-chloro-2-fluorobiphenyl-3-yl)-4-fluoropyrrolidine-2-carboxamide], less than 1000 nM.
